These are literature values, as cited in article PMC2742322 (Bioorganic & medicinal chemistry letters, 2008).

The series concerns the target μ-opioid receptor (Cavia porcellus, UniProt A0ACM8Q262). The settings on record: read-out: IC50^μ (GPI); functional bioactivity.

Chain of μ-opioid receptor (A0ACM8Q262 1-400): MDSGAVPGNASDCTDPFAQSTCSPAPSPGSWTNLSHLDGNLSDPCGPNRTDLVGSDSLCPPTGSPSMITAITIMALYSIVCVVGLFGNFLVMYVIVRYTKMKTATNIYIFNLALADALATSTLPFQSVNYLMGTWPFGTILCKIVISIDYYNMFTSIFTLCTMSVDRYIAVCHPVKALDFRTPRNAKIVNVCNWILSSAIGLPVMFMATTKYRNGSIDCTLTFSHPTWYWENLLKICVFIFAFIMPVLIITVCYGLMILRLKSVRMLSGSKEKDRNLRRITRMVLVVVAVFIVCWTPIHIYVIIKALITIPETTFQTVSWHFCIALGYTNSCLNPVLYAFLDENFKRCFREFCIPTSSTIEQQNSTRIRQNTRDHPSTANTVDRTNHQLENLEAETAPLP

Regarding Tyr^1-Pro^2-Trp^3-Phe^4-NH2 [EM-1], the IC50 (commonly the concentration that gives 50% inhibition) was 9.7 ± 2.21 nM.
